Measured values reported in ChEMBL document CHEMBL1201862, “PubChem BioAssay data set” (2004).
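Values below derive from 48-hour exposures of cells grown in 96-well plates, with endpoints linearly interpolated between the two concentrations bracketing the appropriate inhibition level. Here, GI50 denotes the concentration required for 50% inhibition of growth.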 The source made the active and inactive calls. Cut-off read from the data, not from the text of the source: active = GI50 up to about 1.1 µM and inactive = higher.

Experiments:
Test in all cases: NCI anticancer screen, dose series, 48 h
[1] = tested on: SF-268
[2] = tested on: NCI-H23
[3] = tested on: NCI-H460
[4] = tested on: HOP-62
[5] = tested on: HT-29
[6] = tested on: UACC-257
[7] = tested on: KM12
[8] = tested on: SK-OV-3
[9] = tested on: LOX IMVI
[10] = tested on: HCT-116
[11] = tested on: RPMI-8226
[12] = tested on: SW-620
[13] = tested on: A549
[14] = tested on: K562
[15] = tested on: SNB-75
[16] = tested on: COLO 205
[17] = tested on: CCRF-CEM
[18] = tested on: SF-539
[19] = tested on: A498
[20] = tested on: Malme-3M

Measured: GI50

OCCOCn1nc(-c2ccccc2)nc1-c1cnccn1
inactive: [1] > 100 µM | [2] > 100 µM | [3] > 100 µM | [4] > 100 µM | [5] > 100 µM | [6] > 100 µM | [7] > 100 µM | [8] > 100 µM | [9] > 100 µM | [10] > 100 µM | [11] > 100 µM | [12] > 100 µM | [13] > 100 µM | [14] > 100 µM | [15] 35 µM | [16] > 100 µM | [17] > 100 µM | [18] > 100 µM

CCN1CCC(O)(/C=C/c2ccccc2C)C(C(=O)/C=C/c2ccccc2C)C1 (stereo not given)
inactive: [1] 3.87 µM | [2] 1.8 µM | [3] 1.53 µM | [4] 1.94 µM | [19] 1.91 µM | [5] 2.63 µM | [20] 4.08 µM | [6] 2.9 µM | [8] 6.14 µM | [9] 1.68 µM | [10] 1.78 µM | [12] 2.74 µM | [13] 3.1 µM | [14] 3.07 µM | [15] 4.92 µM | [16] 1.64 µM | [17] 1.85 µM | [18] 2.31 µM

O=Cc1ccc(CCl)cc1
inactive: [1] 24 µM | [2] > 10 µM | [3] 18.6 µM | [19] 29 µM | [5] 16.8 µM | [6] 17.7 µM | [7] 23.5 µM | [8] 22.1 µM | [9] 11 µM | [10] 14.5 µM | [12] 21.5 µM | [13] 39.2 µM | [14] 27.1 µM | [15] > 10 µM | [16] 48 µM | [17] 12.4 µM | [18] 17.1 µM

COc1ccc(/C=C/c2cnccn2)cc1OC
inactive: [1] > 10 µM | [2] > 10 µM | [3] > 10 µM | [4] > 10 µM | [19] > 10 µM | [5] > 10 µM | [20] > 10 µM | [6] > 10 µM | [7] > 10 µM | [8] > 10 µM | [9] > 10 µM | [10] > 10 µM | [12] > 10 µM | [13] > 10 µM | [15] > 10 µM | [16] > 10 µM | [18] > 10 µM

NC(=O)c1coc(C2OC(CO)C(O)C2O)n1 (stereo not given)
inactive: [1] > 100 µM | [2] > 100 µM | [3] > 100 µM | [4] > 100 µM | [19] > 100 µM | [5] > 100 µM | [20] > 100 µM | [7] > 100 µM | [8] > 100 µM | [9] > 100 µM | [10] > 100 µM | [11] > 100 µM | [12] > 100 µM | [13] > 100 µM | [14] > 100 µM | [16] > 100 µM | [17] > 100 µM | [18] > 100 µM

O=C(NC1C(O)C(O)C(CO)OC1n1cc(F)c(=O)[nH]c1=O)OCc1ccccc1 (stereo not given)
inactive: [1] > 100 µM | [2] > 100 µM | [3] > 100 µM | [4] > 100 µM | [19] > 100 µM | [5] > 100 µM | [20] > 100 µM | [6] > 100 µM | [7] > 100 µM | [8] > 100 µM | [9] > 100 µM | [10] > 100 µM | [11] > 100 µM | [12] > 100 µM | [13] > 100 µM | [15] > 100 µM | [16] > 100 µM | [17] 22.2 µM

Nc1ncnc2c1ncn2C=C=CCO
inactive: [2] > 100 µM | [3] > 100 µM | [4] > 100 µM | [19] > 100 µM | [5] > 100 µM | [20] > 100 µM | [6] > 100 µM | [7] > 100 µM | [9] > 100 µM | [10] > 100 µM | [11] > 100 µM | [12] > 100 µM | [14] > 100 µM | [15] > 100 µM | [16] > 100 µM | [17] > 100 µM

COc1ccc(-c2nnc(-c3nsc4ccccc34)o2)cc1
inactive: [1] 65.6 µM | [2] > 100 µM | [3] 45.4 µM | [4] 44.3 µM | [5] 67.6 µM | [6] > 100 µM | [7] 49 µM | [9] 47.9 µM | [10] 38.4 µM | [11] 19.3 µM | [12] > 100 µM | [13] 78.5 µM | [15] 17.5 µM | [16] > 100 µM | [18] 31.2 µM

Oc1cc(-c2ccccc2)nc2c(S)cccc12
inactive: [1] > 100 µM | [2] > 100 µM | [3] > 100 µM | [4] > 100 µM | [5] > 100 µM | [20] > 100 µM | [6] > 100 µM | [7] > 100 µM | [8] > 100 µM | [10] > 100 µM | [11] > 100 µM | [12] > 100 µM | [13] > 100 µM | [14] 81.3 µM | [15] 23.5 µM | [16] > 100 µM | [17] > 100 µM | [18] > 100 µM
